Assay type in all cases: cell-based
Experiment [1] deals with Methicillin-resistant Staphylococcus aureus OC 3726 COL. Briefly: MIC by microdilution broth method (NCCLS), B Strain. The following applies: read-out: MIC B Strain. On the procedure:
(§1) Minimum inhibitory concentration (MIC) is an indicator of in vitro antibacterial activity. […] The in vitro antimicrobial activity of representative compounds of the present invention was determined by the microdilution broth method following the test method from the National Committee for Clinical Laboratory Standards (NCCLS). This method is described in the NCCLS Document M7-A4, Vol. 17, No. 2, “Methods for Dilution Antimicrobial Susceptibility Test for Bacteria that Grow Aerobically—Fourth Edition”, which is incorporated herein by reference.
(§2) In this method two-fold serial dilutions of test compound in cation adjusted Mueller-Hinton broth were added to wells in microdilution trays. The test organisms were prepared by adjusting the turbidity of actively growing broth cultures so that the final concentration of test organism after it is added to the wells was approximately 5×10^4 CFU/well. Following inoculation of the microdilution trays, the trays were incubated at 35° C. for 16-20 hours and then read. The amount of growth in the wells containing the test compound was compared with the amount of growth in the growth-control wells (no test compound) used in each tray.
(§3) Representative compounds of the present invention were tested against a variety of pathogenic bacteria with results as listed in Table 2, below.

Experiment [2] concerns Staphylococcus aureus OC4172. Briefly: MIC by microdilution broth method (NCCLS), C Strain. Particulars: cation adjusted Mueller-Hinton broth, 35° C., 16-20 hours. The method, then:
as §1, §2, §3
(Dilution methods test growth across graded concentrations, often in twofold steps.)

The subject of experiment [3] is Enterococcus faecium OC 3312 vancomycin resistant. Briefly: MIC by microdilution broth method (NCCLS), A Strain. Particulars: read-out: MIC A Strain. On the procedure:
as §1, §2, §3

The subject of experiment [4] is Methicillin-resistant Staphylococcus aureus OC 2878. Briefly: MIC by microdilution broth method (NCCLS), D Strain. Particulars: read-out: MIC D Strain. The method, then:
as §1, §2, §3

Converted amounts (≈) assume the structure as drawn. Some results are limits rather than exact numbers.

The source of these data is patent publication US20100152267A1, “NOVEL RIFAMYCIN 3,4-(3-SUBSTITUTED AMINOMETHYL) FUSED PYRROLO DERIVATIVES” (priority 2008, published 2010).

As to `CO[C@H]1/C=C/O[C@@]2(C)Oc3c(C)c(O)c4c(O)c(c5c(CN)c[nH]c5c4c3C2=O)NC(=O)/C(C)=C\C=C\[C@H](C)[C@H](O)[C@@H](C)[C@@H](O)[C@@H](C)[C@H](OC(C)=O)[C@@H]1C` [Compound 1], the minimum inhibitory concentration (MIC) in experiment [1] was 0.25 µg/mL (≈ 0.333 µM); in experiment [2], 0.12 µg/mL (≈ 0.16 µM); in experiment [3] it was less than 1 µg/mL; in experiment [4], 0.25 µg/mL (≈ 0.333 µM).

As for `CO[C@H]1/C=C/O[C@@]2(C)Oc3c(C)c(O)c4c(O)c(c5c(CN6CCCCC6)c[nH]c5c4c3C2=O)NC(=O)/C(C)=C\C=C\[C@H](C)[C@H](O)[C@@H](C)[C@@H](O)[C@@H](C)[C@H](OC(C)=O)[C@@H]1C` [Compound 2], the MIC is 4 µg/mL (≈ 4.89 µM) in experiment [1], 4 µg/mL (≈ 4.89 µM) in experiment [2], 8 µg/mL (≈ 9.78 µM) in experiment [3] and 4 µg/mL (≈ 4.89 µM) in experiment [4].

`CO[C@H]1/C=C/O[C@@]2(C)Oc3c(C)c(O)c4c(O)c(c5c(CN(C)Cc6ccc(N7CCN(C)CC7)cc6)c[nH]c5c4c3C2=O)NC(=O)/C(C)=C\C=C\[C@H](C)[C@H](O)[C@@H](C)[C@@H](O)[C@@H](C)[C@H](OC(C)=O)[C@@H]1C` [Compound 3]: the MIC in experiment [1] turned out to be 1 µg/mL (≈ 1.05 µM); in experiment [2], 1 µg/mL (≈ 1.05 µM); in experiment [3], 2 µg/mL (≈ 2.1 µM); in experiment [4] it was 1 µg/mL (≈ 1.05 µM).

For `CO[C@H]1/C=C/O[C@@]2(C)Oc3c(C)c(O)c4c(O)c(c5c(CNCc6ccc(N7CCN(C)CC7)cc6)c[nH]c5c4c3C2=O)NC(=O)/C(C)=C\C=C\[C@H](C)[C@H](O)[C@@H](C)[C@@H](O)[C@@H](C)[C@H](OC(C)=O)[C@@H]1C` [Compound 4], the MIC was 0.5 µg/mL (≈ 0.533 µM) in experiment [1], 1 µg/mL (≈ 1.07 µM) in experiment [2], 1 µg/mL (≈ 1.07 µM) in experiment [3] and 0.5 µg/mL (≈ 0.533 µM) in experiment [4].

`CO[C@H]1/C=C/O[C@@]2(C)Oc3c(C)c(O)c4c(O)c(c5c(CN(Cc6ccc(N7CCN(C)CC7)cc6)Cc6ccc(N7CCN(C)CC7)cc6)c[nH]c5c4c3C2=O)NC(=O)/C(C)=C\C=C\[C@H](C)[C@H](O)[C@@H](C)[C@@H](O)[C@@H](C)[C@H](OC(C)=O)[C@@H]1C` [Compound 5]: the MIC worked out at 0.25 µg/mL (≈ 0.222 µM) in experiment [1], 0.25 µg/mL (≈ 0.222 µM) in experiment [2], 1 µg/mL (≈ 0.888 µM) in experiment [3] and 0.25 µg/mL (≈ 0.222 µM) in experiment [4].

The term MIC denotes the smallest concentration in the dilution series that meets the test's criterion for growth inhibition.
